Assay [1] concerns carbonylation of muscle proteins. The assay can be described thus: Carbonylation of muscle proteins (DNPH assay, tibialis anterior) in malnourished-renourished rats. Format: in vivo, Sprague-Dawley rats. To be noted: rats aged 19 months, 12 weeks restricted diet, renourished one week with diet enriched with citrulline (5 g/kg/d); FIG. 1 column 4 versus column 3. As for the experimental part: (§1) Male Sprague-Dawley rats (Charles River Laboratoires, L'Arbresles, France) aged 19 months are placed in individual cages in a thermostatically-controlled atmosphere (23°±1° C.) and subjected to a 12-h light-darkness cycle (darkness from 8 h to 20 h). The manager of the programme is authorized (no. 75.522) by the Ministry of Agriculture and Forestry to carry out this type of experiment. Moreover, the use and the treatment of the laboratory animals comply with legislation (D2001-486) and are in accordance with European legislation (Official Journal of the European Community L358 Dec. 18, 1986).
(§2) The rats are acclimatized for 2 weeks during which spontaneous food consumption is measured. […]
The processes of oxidation of the proteins affecting the structure of the amino acids which comprise them are complex and all give rise to the formation of carbonyl groups. For this reason it was decided to carry out an overall evaluation of the oxidation of the muscle proteins by quantifying the carbonylated derivatives from a sample of 300 mg of tibialis anterior. […] The solubilized proteins are separated into two equal fractions in order to have two cups containing the same quantity of proteins (1-1.5 mg/ml). One of the cups serves as a blank and the other to quantify the carbonyl groups. […]

Assay [2] concerns carbonylation of the cerebral proteins. The assay can be described thus: Carbonylation of cerebral proteins (DNPH assay, brain) in elderly rats. Format: in vivo, Sprague-Dawley rats. As for the experimental part: as §1, with “Laboratoires, L′Arbresles,” for “Laboratoires, L'Arbresles,”, “aged 25” for “aged 19”, “(23°±1° C.),” for “(23°±1° C.)”, “a 12-hour” for “a 12-h”
as §2
AANE group (n=4): the animals receive a standard diet rendered isonitrogenous compared with that of the CIT group by the addition of non-essential amino acids (alanine, asparagine, glycine, serine, histidine, and proline in equimolar quantities) for 1 month. […]
The processes of oxidation of the proteins affecting the structure of the amino acids which comprise them are complex and all give rise to the formation of carbonyl groups. For this reason it was decided to carry out an overall evaluation of the oxidation of the muscle proteins by quantifying the carbonylated derivatives from a sample of 1 g of brain. […] One of the cups serves as a blank and the other to quantify the carbonyl groups. […]

Results on 1 compound are retold here after patent publication US20100093863A1, “USE OF CITRULLINE FOR PREVENTING AN INCREASE IN PROTEIN CARBONYLATION AND FOR TREATING DISEASES RESULTING THEREFROM” (UNIVERSITE PARIS DESCARTESURE, priority 2007, published 2010).

Structures are written as SMILES.

For the compound `NC(=O)NCCCC(N)C(=O)O` (stereo not drawn) [citrulline, 2-amino-5-(carbamoylamino)pentanoic acid], in assay [1], the “increase in the carbonylation of muscle proteins accompanying malnutrition-renutrition” value is reported as “this phenomenon disappears completely”. Besides, the Carbonylated proteins in assay [2] (brain of rats aged 25 months, enriched standard diet for 1 month (CIT 1 g/kg/d; AANE isonitrogenous), Average ± ASD) came to 164 ± 12 µmol/g. In assay [2] (elderly healthy rats, diet enriched with CIT (1 g/kg/d, 1 month) versus AANE group), the “decrease in the carbonylation of the cerebral proteins” value is about 10%.
